Reference: US10752884B2, “Method of inducing beta cells from urine-derived cells using small molecules” (UNIVERSITY OF SOUTH AUSTRALIA, priority 2014, dated 2020)

What was measured:
ALK2 = target: T1, ALK2 (Homo sapiens, UniProt Q04771); conditions: cited from earlier work
T1 sequence (Q04771 21-509): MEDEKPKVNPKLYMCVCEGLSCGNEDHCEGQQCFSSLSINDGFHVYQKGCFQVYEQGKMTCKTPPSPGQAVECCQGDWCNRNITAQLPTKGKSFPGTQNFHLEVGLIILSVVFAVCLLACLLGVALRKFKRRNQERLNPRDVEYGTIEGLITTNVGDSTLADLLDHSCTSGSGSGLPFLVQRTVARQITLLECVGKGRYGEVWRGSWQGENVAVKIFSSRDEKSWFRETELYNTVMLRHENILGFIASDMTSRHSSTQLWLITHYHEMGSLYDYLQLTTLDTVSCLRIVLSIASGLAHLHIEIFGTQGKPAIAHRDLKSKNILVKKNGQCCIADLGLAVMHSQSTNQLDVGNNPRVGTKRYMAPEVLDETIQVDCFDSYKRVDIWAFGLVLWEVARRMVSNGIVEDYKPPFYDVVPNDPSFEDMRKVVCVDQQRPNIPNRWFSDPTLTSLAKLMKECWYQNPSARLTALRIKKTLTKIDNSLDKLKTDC

TGF-β-induced EMT = conditions: via the inhibition of Smad2 phosphorylation; cited from earlier work
ALK3 = ALK3 (Homo sapiens, UniProt P36894); conditions: cited from earlier work
Chain of ALK3 (P36894 24-532): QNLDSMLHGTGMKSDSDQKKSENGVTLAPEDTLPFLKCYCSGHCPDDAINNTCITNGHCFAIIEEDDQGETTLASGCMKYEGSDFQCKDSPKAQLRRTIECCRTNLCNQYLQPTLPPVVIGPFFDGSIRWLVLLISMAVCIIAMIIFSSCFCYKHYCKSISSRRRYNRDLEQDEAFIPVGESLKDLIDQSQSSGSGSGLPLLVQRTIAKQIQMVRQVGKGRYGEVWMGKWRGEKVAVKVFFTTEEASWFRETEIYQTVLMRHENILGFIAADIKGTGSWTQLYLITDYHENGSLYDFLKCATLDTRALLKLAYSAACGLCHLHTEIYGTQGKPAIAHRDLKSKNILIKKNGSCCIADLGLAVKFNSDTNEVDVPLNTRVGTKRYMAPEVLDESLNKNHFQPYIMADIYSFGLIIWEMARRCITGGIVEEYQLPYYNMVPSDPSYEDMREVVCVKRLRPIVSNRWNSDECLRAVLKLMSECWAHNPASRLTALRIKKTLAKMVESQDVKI

ALK1 = ALK1 (Homo sapiens, UniProt P37023); conditions: cited from earlier work
Chain of ALK1 (P37023 22-503, species assumed): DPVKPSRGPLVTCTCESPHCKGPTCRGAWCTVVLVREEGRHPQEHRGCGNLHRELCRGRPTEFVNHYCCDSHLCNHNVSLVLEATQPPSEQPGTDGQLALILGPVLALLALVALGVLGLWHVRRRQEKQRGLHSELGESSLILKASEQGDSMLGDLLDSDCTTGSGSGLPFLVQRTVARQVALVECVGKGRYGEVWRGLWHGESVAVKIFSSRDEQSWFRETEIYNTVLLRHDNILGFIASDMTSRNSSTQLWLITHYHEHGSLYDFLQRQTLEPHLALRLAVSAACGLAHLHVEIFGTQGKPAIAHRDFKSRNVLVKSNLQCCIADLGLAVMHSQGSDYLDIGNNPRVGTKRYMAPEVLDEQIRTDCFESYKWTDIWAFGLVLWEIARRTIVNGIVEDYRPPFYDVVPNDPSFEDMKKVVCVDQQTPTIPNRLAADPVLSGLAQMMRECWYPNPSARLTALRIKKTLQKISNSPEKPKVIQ

ALK6 = ALK6 (Homo sapiens, UniProt O00238); conditions: cited from earlier work
Chain of ALK6 (O00238 14-502): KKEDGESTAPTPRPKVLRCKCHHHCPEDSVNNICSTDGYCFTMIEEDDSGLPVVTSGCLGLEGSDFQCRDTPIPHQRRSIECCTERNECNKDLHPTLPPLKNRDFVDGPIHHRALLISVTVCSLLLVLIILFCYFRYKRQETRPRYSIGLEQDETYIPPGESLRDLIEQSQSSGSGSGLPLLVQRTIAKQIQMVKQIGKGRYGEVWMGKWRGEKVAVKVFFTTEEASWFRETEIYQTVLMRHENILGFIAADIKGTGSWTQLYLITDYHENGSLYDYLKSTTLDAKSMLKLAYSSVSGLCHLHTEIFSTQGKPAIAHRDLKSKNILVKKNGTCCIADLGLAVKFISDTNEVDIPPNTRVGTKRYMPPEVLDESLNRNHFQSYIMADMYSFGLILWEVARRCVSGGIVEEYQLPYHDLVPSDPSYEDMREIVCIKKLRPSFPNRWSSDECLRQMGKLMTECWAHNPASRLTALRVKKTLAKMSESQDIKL

ALK4 = conditions: cited from earlier work
human urine cells (HUC) = test: Secondary induction, cell morphology by phase contrast microscopy; format: cell-based; conditions: after Example 2 primary induction; 330 nm Indolactam V, four days
Experimental: HUC-M-35 P5 cells were prepared using the primary induction protocol described in Example 2. The cells were then cultured in a secondary induction medium containing DMEM, […] Indolactam V, 1×2 mM L-glutamine (Life Technologies, Cat No. 25030-081), and 1×B27 (Life Technologies, Cat No. 17504044) and p/s as detailed above for four days. The morphology of the resultant cells was examined by phase contrast microscopy.
HUC-M-35 P5 cells were induced using the primary induction protocol described in Example 2. […] The morphology of the resultant cells was assessed by phase contrast microscopy.

Row | Structure (SMILES) | inhibition of ALK2 (ALK2) | inhibition of TGF-β-induced EMT (TGF-β-induced EMT) | inhibition of ALK3 (ALK3) | inhibition of ALK1 (ALK1) | inhibition of ALK6 (ALK6) | IC50 (ALK4) [nM] | cell morphology following secondary induction (human urine cells (HUC))
1 | Cc1cccc(-c2nn(C(=S)Nc3ccccc3)cc2-c2ccnc3ccccc23)n1 [A83-01, 3-(6-Methyl-2-pyridinyl)-N-phenyl-4-(4-quinolinyl)-1H-pyrazole-1-carbothioamide] | weakly inhibits | inhibit | weakly inhibits | weakly inhibits | weakly inhibits | 12 | 
2 | CC(C)[C@H]1C(=O)N[C@H](CO)Cc2c[nH]c3cccc(c23)N1C [Indolactam V, (2S,5S)-1,2,4,5,6,8-Hexahydro-5-(hydroxymethyl)-1-methyl-2-(1-methylethyl)-3H-pyrrolo[4,3,2-gh]-1,4-benzodiazonin-3-one] |  |  |  |  |  |  | some cells appeared to have an islet cell morphology
